System: ornithine decarboxylase (ODC)
Test: not given
Settings: general statement, known; cited from earlier work

For `CCCCCCCCCCCCCC(=O)O[C@@H]1[C@@H](C)[C@@]2(O)[C@@H](C=C(CO)C[C@]3(O)C(=O)C(C)=C[C@@H]23)[C@@H]2C(C)(C)[C@]12OC(C)=O` [12-0-tetradecanoylphorbol-13-acetate], which “induction of ODC activity” value is on record?
The value was “induces”.

Same assay, conditions: general statement, literature; cited from earlier work

Which “inhibition of induction of ODC activity by TPA” value does the source give for `CC1=C(/C=C/C(C)=C/C=C/C(C)=C/C(=O)O)C(C)(C)CCC1` [Retinoic acid] here?
The value was “inhibits”.

System: ornithine decarboxylase (ODC)
Test: inhibition of TPA induction of ornithine decarboxylase (ODC)
Assay type: in vivo
Settings: inhibition of TPA-induced ODC activity; Table 1
From the text: The retinoid-like activity of these compounds is confirmed through the classic measure of retinoic acid activity involving the effects of retinoic acid on ornithine decarboxylase. The original work on the correlation-between retinoic acid and decrease in cell proliferation was done by Verma & Boutwell, Cancer Research, 1977, 37,2196-2201. That reference discloses that ornithine decarboxylase (ODC) activity increased precedent to polyamine biosynthesis. It has been established elsewhere that increases in polyamine synthesis can be correlated or associated with cellular proliferation. Thus, if ODC activity could be inhibited, cell hyperproliferation could be modulated. Although all causes for ODC activity increases are unknown, it is known that 12-0-tetradecanoylphorbol-13-acetate (TPA) induces ODC activity. Retinoic acid inhibits this induction of ODC activity by TPA.

For `CCOC(=O)[C@@H]1C[C@@H]1/C=C/C=C(\C)c1ccc2c(c1)C(C)(C)CCC2(C)C` (relative stereo) [Compound 1, Ethyl cis-2-[4-methyl-4-(5,5,8,8,-tetramethyl-5,6,7,8-tetrahydro-2-naphthyl)-(E),(E) 1-3-butadienyl]-1-cyclopropane carboxylate], which IC80 is on record?
Its IC80 is 8.3 nM.

For `CCOC(=O)[C@@H]1C[C@H]1/C=C/C=C(\C)c1ccc2c(c1)C(C)(C)CCC2(C)C` (relative stereo) [Compound 2, Ethyl trans 2-[4-methyl-4(5,6,7,8-tetrahyro-5,5,8,8-tetramethyl-2-naphthyl)E,E 1-3 butadienyl] 1-cyclopropane carboxylate], which IC80 is on record?
The IC80 was 2.1 nM.

Which IC80 does the source give for `C/C(=C\C=C\[C@@H]1C[C@H]1C(=O)O)c1ccc2c(c1)C(C)(C)CCC2(C)C` (relative stereo) [Compound 3, Trans-2-[4-methyl-4-(5,5,8,8,-tetramethyl-5,6,7,8-tetrahydro-2-naphthyl)-(E),(E) 1-3-butadienyl]-1-cyclopropane carboxylic acid] here?
The IC80 was 2.6 nM.

Which IC80 does the source give for `C/C(=C\C=C\[C@H]1C[C@H]1C(=O)O)c1ccc2c(c1)C(C)(C)CCC2(C)C` (relative stereo) [Compound 4, Cis-2-[4-methyl-4-(5,5,8,8,-tetramethyl-5,6,7,8-tetrahydro-2-naphthyl)-(E),(E) 1-3-butadienyl]-1-cyclopropane carboxylic acid] here?
The IC80 was 35 nM.

With `CCOC(=O)[C@@H]1C[C@@H]1/C=C/C=C(\C)c1cc2c(cc1C)C(C)(C)CCC2(C)C` (relative stereo) [Compound 5, Ethyl cis-2-[4-methyl-4-(3,5,5,8,8,-pentamethyl-5,6,7,8-tetrahydro-2-naphthyl)-(E),(E) 1-3-butadienyl]-1-cyclopropane carboxylate] as the compound, how does the IC80 read?
Its IC80 is over 300 nM.

With `C/C(=C\C=C\[C@H]1C[C@H]1C(=O)O)c1cc2c(cc1C)C(C)(C)CCC2(C)C` (relative stereo) [Compound 6, Cis-2-[4-methyl-4-(3,5,5,8,8,-pentamethyl-5,6,7,8-tetrahydro-2-naphthyl)-(E),(E) 1-3-butadienyl]-1-cyclopropane carboxylic acid] as the compound, how does the IC80 read?
The IC80 was 638 nM.

Which IC80 does the source give for `CCOC(=O)[C@@H]1C[C@H]1/C=C/C=C(\C)c1cc2c(cc1C)C(C)(C)CCC2(C)C` (relative stereo) [Compound 7, Ethyl trans-2-[4-methyl-4-(3,5,5,8,8,-pentamethyl-5,6,7,8-tetrahydro-2-naphthyl)-(E),(E) 1-3-butadienyl]-1-cyclopropane carboxylate] here?
Its IC80 is 250 nM.
